# From PMC10238656 (Cancer discovery, 2023)
# Where “and” joins values, the source holds several entries; their conditions need not be identical. Equal entries are not always repeated. Where two headings read alike, the source gives them in different places.
# Experiments:
# [1] = target: full-length recombinant KDM5C (Homo sapiens, UniProt P41229); assay: KDM5C enzyme kinetic assay; type: biochemical
# TET2 = conditions: cited from earlier work
# [2] = target: full-length recombinant KDM5D (Homo sapiens, UniProt Q9BY66)
# KDM5B = conditions: cited from earlier work
# [3] = target: full-length recombinant KDM5A (Homo sapiens, UniProt P29375); assay: KDM5A enzyme kinetic assay; type: biochemical
# KDM5A^F68L = KDM5A^F68L (Homo sapiens, UniProt P29375, F68L); type: biochemical
# KDM5A^R429I = KDM5A^R429I (Homo sapiens, UniProt P29375, R429I); type: biochemical
# [4] = tested on: global 5hmC levels in TF-1 cells; assay: Total 5hmC content by LC-MS; type: cell-based, human; conditions: 21 days in the presence of KDM5c70, day 0 of cytokine withdrawal
# [5] = tested on: trimethyl-H3K4 at sites differentially marked in TF1-IDH1^R132H cells, TF-1 cells; assay: Trimethyl-H3K4 ChIP-seq; type: cell-based, human; conditions: KDM5c70-treated TF-1 cells vs DMSO
# TF-1 cells = assay: TF-1 cytokine-withdrawal assay; type: cell-based, human; conditions: parental TF-1 cells passaged 21 days in the presence of KDM5c70
# IHA cells = assay: Soft agar colony-forming assay; type: cell-based, human; conditions: 50 nM KDM5c70, IHA cells passaged 7 times in the presence of KDM5c70
# [6] = tested on: global H3K4 trimethylation in TF-1 cells; assay: Immunoblot analysis of global trimethyl-H3K4; type: cell-based, human; conditions: 50 nM KDM5c70, 21 days, vs DMSO-treated TF-1 cells
# TF1-IDH1^R132H cells [7] = assay: Proliferation under cytokine-rich conditions; type: cell-based, human; conditions: doses up to 100 nM, cytokine-rich media
# control TF-1 cells = assay: Proliferation under cytokine-rich conditions; type: cell-based, human; conditions: doses up to 100 nM, cytokine-rich media
# TF1-IDH1^R132H cells [8] = assay: Cytokine-withdrawal assay of mutant IDH-transformed TF-1 cells; type: cell-based, human
# TF1-shTET2 cells = assay: Cytokine-withdrawal assay of TET2-knockdown TF-1 cells; type: cell-based, human; conditions: pre-treatment for two weeks prior to cytokine withdrawal
# [9] = read-out: 2OG Km, mean ± SD of 3 to 7 assays, 50 mM Tris-HCl pH 7.5, 37 °C
# [10] = read-out: (R)-2HG IC50, fourfold 2OG concentration relative to 2OG Km
# [11] = read-out: (S)-2HG IC50, fourfold 2OG concentration relative to 2OG Km
# full-length recombinant KDM5D, sequence (Q9BY66 whole entry): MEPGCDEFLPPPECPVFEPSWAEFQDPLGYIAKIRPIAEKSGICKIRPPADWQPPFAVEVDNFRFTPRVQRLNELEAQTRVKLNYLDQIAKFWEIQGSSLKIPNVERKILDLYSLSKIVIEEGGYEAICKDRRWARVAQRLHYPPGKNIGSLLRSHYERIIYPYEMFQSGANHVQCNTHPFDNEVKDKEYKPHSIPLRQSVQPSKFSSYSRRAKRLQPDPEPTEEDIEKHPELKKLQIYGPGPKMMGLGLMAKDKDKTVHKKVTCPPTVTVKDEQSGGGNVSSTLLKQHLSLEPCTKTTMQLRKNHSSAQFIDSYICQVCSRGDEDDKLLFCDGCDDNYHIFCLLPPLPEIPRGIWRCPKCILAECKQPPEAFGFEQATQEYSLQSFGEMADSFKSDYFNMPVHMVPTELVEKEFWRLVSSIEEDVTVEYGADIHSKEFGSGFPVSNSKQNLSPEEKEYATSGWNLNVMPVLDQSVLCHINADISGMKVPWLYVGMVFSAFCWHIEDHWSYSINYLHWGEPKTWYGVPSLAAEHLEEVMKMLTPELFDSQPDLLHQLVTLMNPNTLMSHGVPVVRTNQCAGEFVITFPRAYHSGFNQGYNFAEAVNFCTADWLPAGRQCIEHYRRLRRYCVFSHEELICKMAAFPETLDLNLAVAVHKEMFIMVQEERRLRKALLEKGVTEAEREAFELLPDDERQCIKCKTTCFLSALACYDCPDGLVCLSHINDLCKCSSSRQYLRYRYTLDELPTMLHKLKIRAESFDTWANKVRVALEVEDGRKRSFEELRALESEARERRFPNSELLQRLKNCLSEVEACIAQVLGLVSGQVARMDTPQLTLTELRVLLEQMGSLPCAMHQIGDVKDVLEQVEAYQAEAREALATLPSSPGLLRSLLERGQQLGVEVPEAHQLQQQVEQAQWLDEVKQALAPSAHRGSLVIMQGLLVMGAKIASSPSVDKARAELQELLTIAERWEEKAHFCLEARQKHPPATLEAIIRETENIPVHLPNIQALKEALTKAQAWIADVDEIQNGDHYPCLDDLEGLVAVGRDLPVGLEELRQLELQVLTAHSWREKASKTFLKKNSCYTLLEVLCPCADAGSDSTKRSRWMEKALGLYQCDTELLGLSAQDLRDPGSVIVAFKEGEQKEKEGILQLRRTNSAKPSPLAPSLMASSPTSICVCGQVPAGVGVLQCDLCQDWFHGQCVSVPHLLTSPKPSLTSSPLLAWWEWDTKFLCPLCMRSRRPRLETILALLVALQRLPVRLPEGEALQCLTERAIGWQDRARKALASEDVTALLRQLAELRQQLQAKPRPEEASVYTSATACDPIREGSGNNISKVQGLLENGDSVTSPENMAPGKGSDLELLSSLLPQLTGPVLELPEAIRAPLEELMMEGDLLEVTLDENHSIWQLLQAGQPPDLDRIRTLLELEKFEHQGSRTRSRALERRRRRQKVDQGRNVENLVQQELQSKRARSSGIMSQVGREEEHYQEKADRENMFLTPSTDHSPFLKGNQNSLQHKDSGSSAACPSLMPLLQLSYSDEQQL
# full-length recombinant KDM5C, sequence (P41229 whole entry): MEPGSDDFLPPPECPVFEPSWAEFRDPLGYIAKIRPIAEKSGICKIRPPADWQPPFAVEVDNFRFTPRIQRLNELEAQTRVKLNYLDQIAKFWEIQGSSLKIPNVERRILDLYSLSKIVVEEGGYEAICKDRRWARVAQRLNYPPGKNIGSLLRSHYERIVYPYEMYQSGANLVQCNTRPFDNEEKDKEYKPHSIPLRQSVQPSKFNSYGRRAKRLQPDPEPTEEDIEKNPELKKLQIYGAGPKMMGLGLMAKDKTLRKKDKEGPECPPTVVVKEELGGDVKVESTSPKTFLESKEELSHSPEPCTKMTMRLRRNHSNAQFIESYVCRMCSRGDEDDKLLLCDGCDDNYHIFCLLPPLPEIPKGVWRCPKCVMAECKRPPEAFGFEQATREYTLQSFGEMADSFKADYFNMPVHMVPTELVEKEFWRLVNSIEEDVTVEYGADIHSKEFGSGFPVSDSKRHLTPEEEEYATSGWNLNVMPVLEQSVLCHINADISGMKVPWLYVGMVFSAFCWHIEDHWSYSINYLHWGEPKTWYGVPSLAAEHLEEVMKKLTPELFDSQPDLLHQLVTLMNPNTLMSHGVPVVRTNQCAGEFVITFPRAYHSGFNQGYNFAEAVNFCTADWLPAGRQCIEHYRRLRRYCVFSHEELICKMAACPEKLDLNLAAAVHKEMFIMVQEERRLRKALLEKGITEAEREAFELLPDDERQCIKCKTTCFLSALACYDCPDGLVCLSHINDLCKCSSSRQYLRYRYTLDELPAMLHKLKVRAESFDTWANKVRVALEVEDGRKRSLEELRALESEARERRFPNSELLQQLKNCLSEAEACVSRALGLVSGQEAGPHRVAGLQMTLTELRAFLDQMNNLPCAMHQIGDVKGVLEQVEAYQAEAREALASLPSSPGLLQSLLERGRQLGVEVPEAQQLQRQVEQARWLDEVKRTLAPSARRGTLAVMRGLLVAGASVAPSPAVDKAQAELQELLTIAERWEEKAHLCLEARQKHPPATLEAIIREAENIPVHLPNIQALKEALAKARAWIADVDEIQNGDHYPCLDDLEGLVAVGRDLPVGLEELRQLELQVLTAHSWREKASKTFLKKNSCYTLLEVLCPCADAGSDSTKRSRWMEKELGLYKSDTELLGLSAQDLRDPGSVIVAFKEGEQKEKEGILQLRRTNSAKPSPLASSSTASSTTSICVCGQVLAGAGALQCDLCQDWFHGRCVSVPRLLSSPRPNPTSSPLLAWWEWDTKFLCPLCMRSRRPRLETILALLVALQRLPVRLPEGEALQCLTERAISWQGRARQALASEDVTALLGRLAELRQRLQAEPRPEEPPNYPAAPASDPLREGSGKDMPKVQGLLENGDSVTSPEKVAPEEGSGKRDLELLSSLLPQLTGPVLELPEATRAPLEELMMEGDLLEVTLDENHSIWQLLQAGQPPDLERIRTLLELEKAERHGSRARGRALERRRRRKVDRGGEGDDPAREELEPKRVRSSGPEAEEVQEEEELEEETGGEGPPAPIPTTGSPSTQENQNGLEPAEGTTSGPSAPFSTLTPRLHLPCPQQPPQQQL
# full-length recombinant KDM5A, sequence (P29375 whole entry): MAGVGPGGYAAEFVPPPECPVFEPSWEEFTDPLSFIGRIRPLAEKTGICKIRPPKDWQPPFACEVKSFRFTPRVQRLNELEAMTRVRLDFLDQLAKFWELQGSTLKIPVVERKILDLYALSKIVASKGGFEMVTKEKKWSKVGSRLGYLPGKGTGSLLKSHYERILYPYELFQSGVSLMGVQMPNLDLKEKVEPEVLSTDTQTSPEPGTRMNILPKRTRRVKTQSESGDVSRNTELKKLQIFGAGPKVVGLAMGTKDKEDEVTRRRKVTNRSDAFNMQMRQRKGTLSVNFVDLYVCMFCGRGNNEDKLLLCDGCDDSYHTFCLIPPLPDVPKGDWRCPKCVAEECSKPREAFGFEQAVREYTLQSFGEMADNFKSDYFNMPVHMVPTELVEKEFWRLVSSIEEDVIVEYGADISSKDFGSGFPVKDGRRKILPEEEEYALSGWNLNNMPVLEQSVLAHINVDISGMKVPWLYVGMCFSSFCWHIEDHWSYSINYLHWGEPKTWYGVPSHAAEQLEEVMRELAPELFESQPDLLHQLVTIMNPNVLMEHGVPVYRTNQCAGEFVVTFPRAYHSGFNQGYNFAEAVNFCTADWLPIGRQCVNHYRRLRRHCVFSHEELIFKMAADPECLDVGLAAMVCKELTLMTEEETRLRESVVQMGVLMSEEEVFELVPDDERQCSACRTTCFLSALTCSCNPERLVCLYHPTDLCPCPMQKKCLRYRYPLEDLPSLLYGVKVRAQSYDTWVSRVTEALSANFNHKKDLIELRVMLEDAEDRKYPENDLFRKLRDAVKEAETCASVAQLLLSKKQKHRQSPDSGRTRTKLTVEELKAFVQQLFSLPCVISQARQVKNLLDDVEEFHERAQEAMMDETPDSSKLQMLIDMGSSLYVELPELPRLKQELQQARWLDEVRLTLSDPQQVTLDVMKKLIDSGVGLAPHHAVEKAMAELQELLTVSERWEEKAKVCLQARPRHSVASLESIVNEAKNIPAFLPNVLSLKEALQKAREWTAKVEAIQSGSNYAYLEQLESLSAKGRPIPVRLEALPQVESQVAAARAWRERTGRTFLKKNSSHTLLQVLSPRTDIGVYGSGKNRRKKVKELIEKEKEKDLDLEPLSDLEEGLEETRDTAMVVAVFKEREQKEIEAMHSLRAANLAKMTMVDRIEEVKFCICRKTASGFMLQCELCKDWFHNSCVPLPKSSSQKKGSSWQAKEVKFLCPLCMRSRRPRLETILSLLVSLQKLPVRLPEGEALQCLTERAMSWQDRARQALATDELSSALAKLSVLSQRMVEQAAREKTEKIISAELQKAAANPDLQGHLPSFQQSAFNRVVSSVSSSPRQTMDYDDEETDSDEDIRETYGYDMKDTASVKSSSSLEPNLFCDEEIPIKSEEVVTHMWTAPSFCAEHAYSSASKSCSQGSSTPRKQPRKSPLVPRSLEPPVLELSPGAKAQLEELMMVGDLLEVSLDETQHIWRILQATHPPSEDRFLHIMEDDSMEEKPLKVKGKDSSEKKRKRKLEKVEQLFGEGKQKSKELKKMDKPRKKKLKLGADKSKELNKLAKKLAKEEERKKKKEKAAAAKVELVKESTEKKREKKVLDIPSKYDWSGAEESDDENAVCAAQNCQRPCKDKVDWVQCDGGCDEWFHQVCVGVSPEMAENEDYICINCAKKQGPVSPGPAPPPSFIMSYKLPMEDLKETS
# KDM5A^F68L, sequence (P29375 whole entry F68L): as the sequence (P29375 whole entry) above, with F68L counted along it
# KDM5A^R429I, sequence (P29375 whole entry R429I): as the sequence (P29375 whole entry) above, with R429I counted along it
smiles,measurement,setting,value
"O=C(O)CCC(=O)C(=O)O [2OG, 2-oxoglutarate]",Km,[1]; [9],2.7 ± 0.4 µM
same,Km,TET2; read-out: 2OG Km,55 ± 20 µM
same,Km,[2]; [9],4.3 ± 1.5 µM
same,Km,KDM5B; read-out: 2OG Km,10 ± 2 µM
same,Km,"[3]; read-out: 2OG Km, mean ± SD of 3 to 7 assays, 50 mM MES pH 6.5, 37 °C",4.5 ± 0.3 µM
"O=C(O)CC[C@@H](O)C(=O)O [(R)-2HG, (R)-2-hydroxyglutarate]",sensitivity to inhibition by (R)-2HG compared with wild-type KDM5A,KDM5A^F68L,similarly sensitive to inhibition by (R)-2HG
same,IC50,[1]; [10],670 ± 100 µM
same,IC50,TET2; read-out: (R)-2HG IC50,~5000 µM and 5000 µM
same,IC50,[2]; [10],800 ± 190 µM
same,sensitivity to inhibition by (R)-2HG compared with wild-type KDM5A,KDM5A^R429I,similarly sensitive to inhibition by (R)-2HG
same,IC50,[3]; [10],930 ± 200 µM
O=C(O)CC[C@H](O)C(=O)O [(S)-2HG],inhibition of KDM5C (in words),[1],potently inhibited
same,IC50,[1]; [11],200 ± 10 µM
same,IC50,TET2; read-out: (S)-2HG IC50,1600 µM
same,inhibition of KDM5D (in words),[2],potently inhibited
same,IC50,[2]; [11],310 ± 30 µM
same,inhibition of KDM5A (in words),[3],potently inhibited
same,IC50,[3]; [11],150 ± 100 µM
CCOC(=O)c1ccnc(CNCC(=O)N(CC)CCN(C)C)c1 [KDM5c70],effect on global 5hmC levels,[4],neither KDM5A/C/D triple knockout nor treatment with KDM5c70 had a significant effect
same,trimethyl-H3K4 ChIP-seq signal at sites enriched in TF1-IDH1^R132H cells,[5],trimethyl-H3K4-rich regions were enriched
same,induction of TF-1 cytokine independence,TF-1 cells,sufficient to induce TF-1 cytokine independence
same,soft agar colony formation,IHA cells,sufficient to induce soft agar colony formation
same,effect on global trimethyl-H3K4 levels (western blot),[6],increased global levels of trimethyl-H3K4
CC(C)N(C(=O)c1cc(F)ccc1Oc1cncnc1N1CC2(CCN(CC3CCC(NS(C)(=O)=O)CC3)CC2)C1)C(C)C (centres unmarked) [VTP50469],effect on cytokine-dependent proliferation,TF1-IDH1^R132H cells [7],no effect
same,effect on cytokine-dependent proliferation,control TF-1 cells,no effect
same,effect on cytokine independence,TF1-IDH1^R132H cells [8]; pre-treatment for two weeks prior to cytokine withdrawal,did inhibit TF1-IDH1^R132H cytokine independence in a dose-dependent manner
same,effect on cytokine independence,TF1-IDH1^R132H cells [8]; treatment started on day 0 of cytokine withdrawal,no effect
same,effect on cytokine independent proliferation,TF1-shTET2 cells,inhibited the cytokine independent proliferation of TF1-shTET2 cells to a similar extent as TF1-IDH1^R132H cells
